What was measured:
[1] = target: α4β1 integrin (Homo sapiens (Human), UniProt P05556+P13612); experiment: Integrin Adhesion Assay: Protocol 5 (VCAM-coated plate, RPMI-8866 cells with stable LOF mutation of the ITGB7 gene); format: cell-based; conditions: RPMI-8866 cells with stable LOF mutation of the ITGB7 gene; read-out: Mean IC50 α4β1 KO^b
In short: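 RPMI-8866 B cells with CRISPR/Cas9 ITGB7 knockout (clonal, verified by flow cytometry) adhered to VCAM-coated wells for 1 h at 37° C in HEPES/NaCl buffer with 1 mM MnCl2, 0.1 mM CaCl2, 1% BSA, 1% DMSO. Bound cells quantified by CellTiter-Glo luminescence after washing; % inhibition versus DMSO and control, 4-parameter fit.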

[2] = target: α4β7 integrin (Homo sapiens (Human), UniProt P13612+P26010); experiment: Integrin Adhesion Assay: Protocol 4 (MAdCAM-coated plate, RPMI-8866 cells with stable LOF mutation of the ITGB1 gene); format: cell-based; conditions: RPMI-8866 cells with stable LOF mutation of the ITGB1 gene; read-out: Mean IC50 α4β7 KO^a
α4β7 integrin, sequence (P13612 34-1032): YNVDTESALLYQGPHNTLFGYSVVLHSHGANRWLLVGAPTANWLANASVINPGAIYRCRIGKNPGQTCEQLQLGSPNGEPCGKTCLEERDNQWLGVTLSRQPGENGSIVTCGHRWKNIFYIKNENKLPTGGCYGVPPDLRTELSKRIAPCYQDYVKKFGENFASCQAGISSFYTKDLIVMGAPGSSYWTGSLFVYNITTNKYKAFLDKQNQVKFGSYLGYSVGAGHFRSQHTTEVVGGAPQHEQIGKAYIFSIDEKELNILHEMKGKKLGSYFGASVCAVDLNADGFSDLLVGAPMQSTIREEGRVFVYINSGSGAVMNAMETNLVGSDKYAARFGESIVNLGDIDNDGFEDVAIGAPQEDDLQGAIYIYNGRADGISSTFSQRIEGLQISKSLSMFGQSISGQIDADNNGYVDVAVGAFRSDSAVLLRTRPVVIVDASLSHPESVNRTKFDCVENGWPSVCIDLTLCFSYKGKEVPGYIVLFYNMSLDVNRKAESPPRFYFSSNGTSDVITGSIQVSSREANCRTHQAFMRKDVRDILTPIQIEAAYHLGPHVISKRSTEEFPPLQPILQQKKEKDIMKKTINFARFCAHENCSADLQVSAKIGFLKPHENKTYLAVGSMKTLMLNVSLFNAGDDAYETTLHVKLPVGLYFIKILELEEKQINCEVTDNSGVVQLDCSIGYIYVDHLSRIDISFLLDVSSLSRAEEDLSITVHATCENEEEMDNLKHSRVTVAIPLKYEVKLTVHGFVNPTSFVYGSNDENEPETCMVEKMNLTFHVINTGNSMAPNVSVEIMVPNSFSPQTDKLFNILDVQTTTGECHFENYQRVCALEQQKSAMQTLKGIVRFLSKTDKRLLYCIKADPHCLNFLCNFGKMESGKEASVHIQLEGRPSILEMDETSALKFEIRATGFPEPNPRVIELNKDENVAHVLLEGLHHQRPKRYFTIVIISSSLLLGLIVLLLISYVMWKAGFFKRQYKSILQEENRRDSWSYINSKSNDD
α4β7 integrin, sequence (P26010 20-798): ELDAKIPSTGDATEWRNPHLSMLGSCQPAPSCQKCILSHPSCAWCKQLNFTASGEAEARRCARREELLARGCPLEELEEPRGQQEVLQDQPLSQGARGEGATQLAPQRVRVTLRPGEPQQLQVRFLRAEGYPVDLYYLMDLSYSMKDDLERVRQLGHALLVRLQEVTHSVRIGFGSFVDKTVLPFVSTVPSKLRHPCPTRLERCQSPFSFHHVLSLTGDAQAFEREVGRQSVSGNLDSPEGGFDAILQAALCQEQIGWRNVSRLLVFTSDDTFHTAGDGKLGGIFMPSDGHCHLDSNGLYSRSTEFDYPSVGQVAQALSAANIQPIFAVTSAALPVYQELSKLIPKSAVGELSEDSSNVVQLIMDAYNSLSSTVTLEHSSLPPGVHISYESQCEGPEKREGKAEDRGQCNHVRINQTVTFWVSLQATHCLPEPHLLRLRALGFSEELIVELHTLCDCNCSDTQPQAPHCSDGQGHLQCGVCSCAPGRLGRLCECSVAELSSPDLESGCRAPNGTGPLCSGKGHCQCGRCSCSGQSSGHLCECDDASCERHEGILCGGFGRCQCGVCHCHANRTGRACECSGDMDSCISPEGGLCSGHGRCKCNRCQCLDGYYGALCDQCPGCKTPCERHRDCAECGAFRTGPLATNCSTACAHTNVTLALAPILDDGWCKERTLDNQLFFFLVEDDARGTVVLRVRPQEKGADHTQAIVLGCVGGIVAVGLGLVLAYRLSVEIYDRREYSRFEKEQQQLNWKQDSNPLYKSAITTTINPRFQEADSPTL
In short: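 RPMI-8866 cells with CRISPR/Cas9 knockout of ITGB1 (2×10^6/mL) were added to MAdCAM-coated wells with compound (1% DMSO) in HEPES/NaCl buffer with 1 mM MnCl2, 0.1 mM CaCl2 and 1% BSA, then incubated 1 h at 37 °C. After four washes, adherent cells were quantified by CellTiter-Glo luminescence. Percent inhibition versus DMSO and control compound was fitted to 4-parameter curves.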

α4β1 integrin, sequence (P13612 34-1032): as the sequence (P13612 34-1032) above
α4β1 integrin, sequence (P05556 21-798): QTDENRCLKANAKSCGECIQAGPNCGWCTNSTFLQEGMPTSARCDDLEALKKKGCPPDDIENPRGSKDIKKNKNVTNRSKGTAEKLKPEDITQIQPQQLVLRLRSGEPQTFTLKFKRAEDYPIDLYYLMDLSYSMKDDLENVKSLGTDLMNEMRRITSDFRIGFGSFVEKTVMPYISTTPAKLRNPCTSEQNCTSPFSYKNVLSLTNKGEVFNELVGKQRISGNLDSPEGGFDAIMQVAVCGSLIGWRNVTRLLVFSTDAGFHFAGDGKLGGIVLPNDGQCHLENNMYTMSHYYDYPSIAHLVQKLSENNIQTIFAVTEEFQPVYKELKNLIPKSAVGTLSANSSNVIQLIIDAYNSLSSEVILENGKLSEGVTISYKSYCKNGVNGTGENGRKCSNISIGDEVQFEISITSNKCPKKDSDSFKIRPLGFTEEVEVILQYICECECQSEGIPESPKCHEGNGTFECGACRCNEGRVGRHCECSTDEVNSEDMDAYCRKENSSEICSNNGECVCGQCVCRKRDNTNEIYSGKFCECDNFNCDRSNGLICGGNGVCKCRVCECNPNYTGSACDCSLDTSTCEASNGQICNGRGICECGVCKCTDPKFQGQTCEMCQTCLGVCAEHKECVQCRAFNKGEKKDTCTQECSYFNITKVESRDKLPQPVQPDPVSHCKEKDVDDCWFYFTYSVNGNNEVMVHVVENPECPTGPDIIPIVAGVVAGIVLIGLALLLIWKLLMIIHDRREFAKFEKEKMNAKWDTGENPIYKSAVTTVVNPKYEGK

SMILES	IC50 [1] [nM]	IC50 [2] [nM]
COc1ccc(CN2CCCCC2C)c(OC)c1-c1cccc2c(C[C@H](NC(=O)c3c(C)cccc3F)C(=O)O)cccc12 (some centres unmarked) [Compound 631]	100 to 1000	< 10
COc1ccc(CN2CCC(F)(F)CC2)c(OC)c1-c1cccc2c(C[C@H](NC(=O)c3c(C)cccc3F)C(=O)O)cccc12 [Compound 634]	> 1000	10 to 100
COc1ccc(CN(C)CCF)c(OC)c1-c1cccc2c(C[C@H](NC(=O)c3c(C)cccc3F)C(=O)O)cccc12 [Compound 636]	100 to 1000	< 10
COc1ccc(CN(C)CC(F)F)c(OC)c1-c1cccc2c(C[C@H](NC(=O)c3c(C)cccc3F)C(=O)O)cccc12 [Compound 637]	100 to 1000	< 10
O=C(O)[C@H](Cc1cccc2c(-c3nccc4c(CN5CCCCC5)cccc34)cccc12)NC(=O)C1(C(F)(F)F)CCN([C@@H]2COCC2(F)F)CC1 [Compound 642]	> 1000	< 10
COc1ccc(CN(C)C)c(OC)c1-c1cccc2c(C[C@H](NC(=O)c3c(F)cccc3C3CC3)C(=O)O)cccc12 [Compound 645]	> 1000	< 10
COc1ccc(CN2CCCCC2)c(OC)c1-c1cccc2c(C[C@H](NC(=O)c3c(F)cccc3C#N)C(=O)O)cccc12 [Compound 646]	> 1000	100 to 1000
COc1ccc(CN2CCOCC2)c(OC)c1-c1cccc2c(C[C@H](NC(=O)c3c(C)cccc3F)C(=O)O)cccc12 [Compound 650]	100 to 1000	< 10
COc1ccc(CN2CCC(CF)CC2)c(OC)c1-c1cccc2c(C[C@H](NC(=O)c3c(C)cccc3F)C(=O)O)cccc12 [Compound 652]	100 to 1000	< 10
COc1ccc(CN2CCC3(CCCCC3)CC2)c(OC)c1-c1cccc2c(C[C@H](NC(=O)c3c(C)cccc3F)C(=O)O)cccc12 [Compound 654]	> 1000	< 10
COc1ccc(CN2CCC3(CCOC3)CC2)c(OC)c1-c1cccc2c(C[C@H](NC(=O)c3c(C)cccc3F)C(=O)O)cccc12 [Compound 655]	> 1000	< 10
COc1ccc(CN2CCN(C3CCC3)CC2)c(OC)c1-c1cccc2c(C[C@H](NC(=O)c3c(C)cccc3F)C(=O)O)cccc12 [Compound 656]	100 to 1000	< 10
COc1ccc(CN2CC(OC(C)(C)C)C2)c(OC)c1-c1cccc2c(C[C@H](NC(=O)C3(C(F)(F)F)CCN(CC(F)(F)F)CC3)C(=O)O)cccc12 [Compound 657]	> 1000	< 10
COc1ccc(CN2CCC(C)(C)CC2)c(C(F)(F)F)c1-c1cccc2c(C[C@H](NC(=O)c3c(C)cccc3F)C(=O)O)cccc12 [Compound 658]	100 to 1000	< 10
CC(C)(C)C1CCN(Cc2cccc3c(-c4cccc5c(C[C@H](NC(=O)C6(C(F)(F)F)CCN(CC(F)(F)F)CC6)C(=O)O)cccc45)nccc23)CC1 [Compound 659]	> 1000	10 to 100
O=C(O)[C@H](Cc1cccc2c(-c3nccc4c(CN5CCOC(C(F)(F)F)C5)cccc34)cccc12)NC(=O)C1(C(F)(F)F)CCN(CC(F)(F)F)CC1 (some centres unmarked) [Compound 660]	> 1000	10 to 100
O=C(O)[C@H](Cc1cccc2c(-c3nccc4c(CN5CCC6(CCCCC6)CC5)cccc34)cccc12)NC(=O)C1(C(F)(F)F)CCN(CC(F)(F)F)CC1 [Compound 661]	> 1000	10 to 100
COc1ccc(CN2CCC(F)(F)CC2)c(OC)c1-c1cccc2c(C[C@H](NC(=O)C3(C(F)(F)F)CCN([C@@H]4COC[C@H]4F)CC3)C(=O)O)cccc12 [Compound 670]	100 to 1000	10 to 100

Second part, the compound after the results:

IC50 [1] [nM]	IC50 [2] [nM]	SMILES
100 to 1000	< 10	COc1ccc(CN2C(C)CCCC2C)c(OC)c1-c1cccc2c(C[C@H](NC(=O)c3c(C)cccc3F)C(=O)O)cccc12 (some centres unmarked) [Compound 632]
10 to 100	< 10	COc1ccc(CN2CCCC2C)c(OC)c1-c1cccc2c(C[C@H](NC(=O)c3c(C)cccc3F)C(=O)O)cccc12 (some centres unmarked) [Compound 633]
> 1000	10 to 100	COc1ccc(CN2C(C)CCC2C)c(OC)c1-c1cccc2c(C[C@H](NC(=O)c3c(C)cccc3F)C(=O)O)cccc12 (some centres unmarked) [Compound 635]
100 to 1000	< 10	COc1ccc(CN2CC(OC)C2)c(OC)c1-c1cccc2c(C[C@H](NC(=O)c3c(C)cccc3F)C(=O)O)cccc12 [Compound 638]
100 to 1000	< 10	O=C(O)[C@H](Cc1cccc2c(-c3nccc4c(CN5CCCCC5)cccc34)cccc12)NC(=O)C1(C(F)(F)F)CCN([C@H]2COCC2(F)F)CC1 [Compound 641]
100 to 1000	< 10	COc1ccc(CN2CCCC(C)C2)c(OC)c1-c1cccc2c(C[C@H](NC(=O)c3c(C)cccc3F)C(=O)O)cccc12 (some centres unmarked) [Compound 643]
100 to 1000	< 10	CN1CCCC1c1cc(-c2cccc3c(C[C@H](NC(=O)C4(C(F)(F)F)CCN(C5COC5)CC4)C(=O)O)cccc23)c2cnccc2c1 (some centres unmarked) [Compound 644]
100 to 1000	< 10	COc1cccc(F)c1C(=O)N[C@@H](Cc1cccc2c(-c3c(OC)ccc(CN4CCCCC4)c3OC)cccc12)C(=O)O [Compound 647]
> 1000	< 10	COc1ccc(CN2CCCCC2)c(OC)c1-c1cccc2c(C[C@H](NC(=O)c3c(F)cccc3-c3ccccc3)C(=O)O)cccc12 [Compound 648]
100 to 1000	< 10	CCc1cccc(F)c1C(=O)N[C@@H](Cc1cccc2c(-c3c(OC)ccc(CN4CCCCC4)c3OC)cccc12)C(=O)O [Compound 649]
100 to 1000	< 10	COc1ccc(CN2C[C@@H](C)O[C@@H](C)C2)c(OC)c1-c1cccc2c(C[C@H](NC(=O)c3c(C)cccc3F)C(=O)O)cccc12 [Compound 651]
100 to 1000	< 10	COc1ccc(CN2CCCC(F)(F)CC2)c(OC)c1-c1cccc2c(C[C@H](NC(=O)c3c(C)cccc3F)C(=O)O)cccc12 [Compound 653]
> 1000	10 to 100	COc1c(CN2CCCCC2)ccc(C(F)(F)F)c1-c1cccc2c(C[C@H](NC(=O)C3(C(F)(F)F)CCN(CC(F)(F)F)CC3)C(=O)O)cccc12 [Compound 662]
> 1000	100 to 1000	COc1ccc(CN2CCC(F)(F)CC2)c(OC)c1-c1cccc2c(C[C@H](NC(=O)c3c(C)cc4cn(CC(F)(F)F)nc4c3F)C(=O)O)cccc12 [Compound 664]
100 to 1000	< 10	COc1ccc(CN2CCCCC2)c(OC)c1-c1cccc2c(C[C@H](NC(=O)c3c(F)cccc3Br)C(=O)O)cccc12 [Compound 665]
> 1000	10 to 100	COc1cc(CN2CCCCC2)ccc1-c1cccc2c(C[C@H](NC(=O)c3c(C)cccc3F)C(=O)O)cccc12 [Compound 666]
> 1000	10 to 100	COc1ccc(CN2CCCCC2)cc1-c1cccc2c(C[C@H](NC(=O)c3c(C)cccc3F)C(=O)O)cccc12 [Compound 667]
> 1000	< 10	COc1ccc(CN2CCC(F)(F)CC2)c(OC)c1-c1cccc2c(C[C@H](NC(=O)C3(C(F)(F)F)CCN([C@@H]4COC[C@@H]4F)CC3)C(=O)O)cccc12 [Compound 668]
> 1000	< 10	COc1ccc(CN2CCC(F)(F)CC2)c(OC)c1-c1cccc2c(C[C@H](NC(=O)C3(C(F)(F)F)CCN([C@H]4COC[C@@H]4F)CC3)C(=O)O)cccc12 [Compound 669]
